Patent EP0726261A1, “Herbidical 1,2,4 thiadiazoles” (American Cyanamid Company, priority 1995, dated 1996)

Columns and labels:
Type in all cases: in vivo
Triticum aestivum [1] = assay: Preemergence herbicidal activity (Example 67); design: herbicide rating, TRZAW: scale not given here; conditions: pre, 800 g/ha
Summary of the method: (§1)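 Test compound was dissolved in acetone containing 0.5% alkylphenol/ethylene oxide condensate, diluted with water and sprayed onto the soil surface of cups at 800g/ha in 400 L/ha (3 bar nozzle). Cups were kept under standard greenhouse conditions and rated about 1-3 weeks after treatment.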

Hordeum vulgare [2] = assay: Preemergence herbicidal activity (Example 67); design: herbicide rating, HORVW: scale not given here; conditions: pre, 800 g/ha
Summary of the method: as §1

Alopecurus myosuroides [3] = assay: Preemergence herbicidal activity (Example 67); design: herbicide rating, ALOMY: scale not given here; conditions: pre, 800 g/ha
Summary of the method: as §1

Setaria viridis [4] = assay: Preemergence herbicidal activity (Example 67); design: herbicide rating, SETVI: scale not given here; conditions: pre, 800 g/ha
Summary of the method: as §1

Abutilon theophrasti [5] = assay: Preemergence herbicidal activity (Example 67); conditions: pre, 800 g/ha
Summary of the method: as §1

Amaranthus retroflexus [6] = assay: Preemergence herbicidal activity (Example 67); conditions: pre, 800 g/ha
Summary of the method: as §1

Chenopodium album [7] = assay: Preemergence herbicidal activity (Example 67); conditions: pre, 800 g/ha
Summary of the method: as §1

Galium aparine [8] = assay: Preemergence herbicidal activity (Example 67); conditions: pre, 800 g/ha
Summary of the method: as §1

Helianthus annuus [9] = assay: Preemergence herbicidal activity (Example 67); conditions: pre, 800 g/ha
Summary of the method: as §1

Ipomoea hederacea [10] = assay: Preemergence herbicidal activity (Example 67); conditions: pre, 800 g/ha
Summary of the method: as §1

Veronica persica [11] = assay: Preemergence herbicidal activity (Example 67); conditions: pre, 800 g/ha
Summary of the method: as §1

Zea mays [12] = assay: Preemergence herbicidal activity (Example 67); conditions: pre, 800 g/ha
Summary of the method: as §1

Abutilon theophrasti [13] = assay: Postemergence herbicidal activity (Example 67); conditions: pos, 800 g/ha
Summary of the method: (§2)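 Seedlings 3-6 weeks old, grown in peat/volcanic clay/bark/polyamide substrate mixed 1:3 with loamy sand, were sprayed postemergence at 800g/ha in 400 L/ha. Compound dissolved in acetone with 0.5% TRITON X-155, diluted in water. Plants kept in greenhouse and rated visually after 10-21 days.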

Alopecurus myosuroides [14] = assay: Postemergence herbicidal activity (Example 67); conditions: pos, 800 g/ha
Summary of the method: as §2

Amaranthus retroflexus [15] = assay: Postemergence herbicidal activity (Example 67); conditions: pos, 800 g/ha
Summary of the method: as §2

Chenopodium album [16] = assay: Postemergence herbicidal activity (Example 67); conditions: pos, 800 g/ha
Summary of the method: as §2

Galium aparine [17] = assay: Postemergence herbicidal activity (Example 67); conditions: pos, 800 g/ha
Summary of the method: as §2

Helianthus annuus [18] = assay: Postemergence herbicidal activity (Example 67); conditions: pos, 800 g/ha
Summary of the method: as §2

Hordeum vulgare [19] = assay: Postemergence herbicidal activity (Example 67); conditions: pos, 800 g/ha
Summary of the method: as §2

Ipomoea hederacea [20] = assay: Postemergence herbicidal activity (Example 67); conditions: pos, 800 g/ha
Summary of the method: as §2

Setaria viridis [21] = assay: Postemergence herbicidal activity (Example 67); conditions: pos, 800 g/ha
Summary of the method: as §2

Triticum aestivum [22] = assay: Postemergence herbicidal activity (Example 67); conditions: pos, 800 g/ha
Summary of the method: as §2

Veronica persica [23] = assay: Postemergence herbicidal activity (Example 67); conditions: pos, 800 g/ha
Summary of the method: as §2

Zea mays [24] = assay: Postemergence herbicidal activity (Example 67); conditions: pos, 800 g/ha
Summary of the method: as §2

[25] = rated about 1-3 weeks after treatment

SMILES: CC(NC(=O)c1nc(-c2ccc(Cl)cc2)ns1)c1cccs1 (racemic) [Example 26]
- herbicide rating, TRZAW (Triticum aestivum [1]; [25]): 0
- herbicide rating, HORVW (Hordeum vulgare [2]; [25]): 0
- herbicide rating, ALOMY (Alopecurus myosuroides [3]; [25]): 0
- herbicide rating, SETVI (Setaria viridis [4]; [25]): 0
- herbicide rating, ABUTH (Abutilon theophrasti [5]; [25]): 0
- herbicide rating, AMARE (Amaranthus retroflexus [6]; [25]): 0
- herbicide rating, CHEAL (Chenopodium album [7]; [25]): 3 (16-29%)
- herbicide rating, GALAP (Galium aparine [8]; [25]): 0
- herbicide rating, HELAN (Helianthus annuus [9]; [25]): 0
- herbicide rating, IPOHE (Ipomoea hederacea [10]; [25]): 0
- herbicide rating, VERPE (Veronica persica [11]; [25]): 2 (6-15%)
- herbicide rating, ZEAMX (Zea mays [12]; [25]): 0
- herbicide rating, ABUTH (Abutilon theophrasti [13]; rated after 10-21 days): 5 (45-64%)
- herbicide rating, ALOMY (Alopecurus myosuroides [14]; rated after 10-21 days): 2 (6-15%)
- herbicide rating, AMARE (Amaranthus retroflexus [15]; rated after 10-21 days): 6 (65-79%)
- herbicide rating, CHEAL (Chenopodium album [16]; rated after 10-21 days): 5 (45-64%)
- herbicide rating, GALAP (Galium aparine [17]; rated after 10-21 days): 5 (45-64%)
- herbicide rating, HELAN (Helianthus annuus [18]; rated after 10-21 days): 7 (80-90%)
- herbicide rating, HORVW (Hordeum vulgare [19]; rated after 10-21 days): 3 (16-29%)
- herbicide rating, IPOHE (Ipomoea hederacea [20]; rated after 10-21 days): 6 (65-79%)
- herbicide rating, SETVI (Setaria viridis [21]; rated after 10-21 days): 5 (45-64%)
- herbicide rating, TRZAW (Triticum aestivum [22]; rated after 10-21 days): 2 (6-15%)
- herbicide rating, VERPE (Veronica persica [23]; rated after 10-21 days): 4 (30-44%)
- herbicide rating, ZEAMX (Zea mays [24]; rated after 10-21 days): 4 (30-44%)

SMILES: O=C(NCc1cccs1)c1nc(-c2ccccc2F)ns1 [Example 50]
- TRZ AW rating (Triticum aestivum [1]): 0
- HOR VW rating (Hordeum vulgare [2]): 1 (1-5%)
- ALO MY rating (Alopecurus myosuroides [3]): 3 (16-29%)
- SET VI rating (Setaria viridis [4]): 0
- ABU TH rating (Abutilon theophrasti [5]): 0
- AMA RE rating (Amaranthus retroflexus [6]): 0
- CHE AL rating (Chenopodium album [7]): 0
- GAL AP rating (Galium aparine [8]): 0
- HEL AN rating (Helianthus annuus [9]): 0
- IPO HE rating (Ipomoea hederacea [10]): 0
- VER PE rating (Veronica persica [11]): 0
- ZEA MX rating (Zea mays [12]): 0
- ABU TH rating (Abutilon theophrasti [13]): 0
- ALO MY rating (Alopecurus myosuroides [14]): 0
- AMA RE rating (Amaranthus retroflexus [15]): 0
- CHE AL rating (Chenopodium album [16]): 3 (16-29%)
- GAL AP rating (Galium aparine [17]): 2 (6-15%)
- HEL AN rating (Helianthus annuus [18]): 3 (16-29%)
- HOR VW rating (Hordeum vulgare [19]): 2 (6-15%)
- IPO HE rating (Ipomoea hederacea [20]): 0
- SET VI rating (Setaria viridis [21]): 5 (45-64%)
- TRZ AW rating (Triticum aestivum [22]): 1 (1-5%)
- VER PE rating (Veronica persica [23]): 0
- ZEA MX rating (Zea mays [24]): 0

SMILES: C[C@H](NC(=O)c1nsc(-c2ccccc2)n1)c1ccccc1 [Example 48, (S)-5-(Phenyl)-[1,2,4]thiadiazole-3-carboxylic acid, 1-(phenylethyl)amide]
- TRZ AW rating (Triticum aestivum [1]): 2 (6-15%)
- HOR VW rating (Hordeum vulgare [2]): 0
- ALO MY rating (Alopecurus myosuroides [3]): 0
- SET VI rating (Setaria viridis [4]): 0
- ABU TH rating (Abutilon theophrasti [5]): 0
- AMA RE rating (Amaranthus retroflexus [6]): 5 (45-64%)
- CHE AL rating (Chenopodium album [7]): 0
- GAL AP rating (Galium aparine [8]): 0
- HEL AN rating (Helianthus annuus [9]): 0
- IPO HE rating (Ipomoea hederacea [10]): 0
- VER PE rating (Veronica persica [11]): 5 (45-64%)
- ZEA MX rating (Zea mays [12]): 0
- ABU TH rating (Abutilon theophrasti [13]): 8 (91-99%)
- ALO MY rating (Alopecurus myosuroides [14]): 6 (65-79%)
- AMA RE rating (Amaranthus retroflexus [15]): 7 (80-90%)
- CHE AL rating (Chenopodium album [16]): 7 (80-90%)
- GAL AP rating (Galium aparine [17]): 7 (80-90%)
- HEL AN rating (Helianthus annuus [18]): 9 (100% effect)
- HOR VW rating (Hordeum vulgare [19]): 7 (80-90%)
- IPO HE rating (Ipomoea hederacea [20]): 7 (80-90%)
- SET VI rating (Setaria viridis [21]): 8 (91-99%)
- TRZ AW rating (Triticum aestivum [22]): 5 (45-64%)
- VER PE rating (Veronica persica [23]): 8 (91-99%)
- ZEA MX rating (Zea mays [24]): 5 (45-64%)
